Results as given in PubChem BioAssay AID1259407 (Chemical Carcinogenesis Research Information System (CCRIS), 2018).
Activity calls are given as the source filed them. The rule behind the calls is not given here.

Tested on: CCRIS mutagenicity, Ames/micronucleus/aberration tests
Assay: CCRIS mutagenicity studies
[1] = Test System: AMES SALMONELLA TYPHIMURIUM, Strain/Indicator: TA98, Metabolic Activation: NONE, Method: STANDARD PLATE
[2] = Test System: AMES SALMONELLA TYPHIMURIUM, Strain/Indicator: TA98, Metabolic Activation: RAT, LIVER, S-9, AROCLOR 1254, Method: STANDARD PLATE
[3] = Test System: AMES SALMONELLA TYPHIMURIUM, Strain/Indicator: TA100, Metabolic Activation: NONE, Method: STANDARD PLATE
[4] = Test System: AMES SALMONELLA TYPHIMURIUM, Strain/Indicator: TA100, Metabolic Activation: RAT, LIVER, S-9, AROCLOR 1254, Method: STANDARD PLATE
[5] = Test System: AMES SALMONELLA TYPHIMURIUM, Strain/Indicator: TA102, Metabolic Activation: NONE, Method: PREINCUBATION
[6] = Test System: AMES SALMONELLA TYPHIMURIUM, Strain/Indicator: TA1535, Metabolic Activation: NONE, Method: STANDARD PLATE
[7] = Test System: AMES SALMONELLA TYPHIMURIUM, Strain/Indicator: TA1537, Metabolic Activation: NONE, Method: STANDARD PLATE
[8] = Test System: AMES SALMONELLA TYPHIMURIUM, Strain/Indicator: TA1538, Metabolic Activation: NONE, Method: STANDARD PLATE

O=S(O)O
mutagenic call (Test System: AMES SALMONELLA TYPHIMURIUM, Strain/Indicator: GW19, Metabolic Activation: NONE, Method: PREINCUBATION (30-90 MIN)): inactive; negative
mutagenic call (Test System: AMES SALMONELLA TYPHIMURIUM, Strain/Indicator: GW19, Metabolic Activation: NONE, Method: STANDARD PLATE): inactive; negative
mutagenic call (Test System: AMES SALMONELLA TYPHIMURIUM, Strain/Indicator: HISG46, Metabolic Activation: NONE, Method: PREINCUBATION): active; positive
mutagenic call (Test System: AMES SALMONELLA TYPHIMURIUM, Strain/Indicator: HISG46, Metabolic Activation: NONE, Method: PREINCUBATION (30-120 MIN)): active; positive
mutagenic call (Test System: AMES SALMONELLA TYPHIMURIUM, Strain/Indicator: HISG46, Metabolic Activation: NONE, Method: STANDARD PLATE): active; positive
mutagenic call (Test System: AMES SALMONELLA TYPHIMURIUM, Strain/Indicator: TA92, Metabolic Activation: NONE, Method: PREINCUBATION (30-90 MIN)): active; positive
mutagenic call (Test System: AMES SALMONELLA TYPHIMURIUM, Strain/Indicator: TA92, Metabolic Activation: NONE, Method: STANDARD PLATE): inactive; negative
mutagenic call (Test System: AMES SALMONELLA TYPHIMURIUM, Strain/Indicator: TA97, Metabolic Activation: NONE, Method: PREINCUBATION): inactive; negative
mutagenic call (Test System: AMES SALMONELLA TYPHIMURIUM, Strain/Indicator: TA97, Metabolic Activation: RAT, LIVER, S-9, AROCLOR 1254, Method: PREINCUBATION): inactive; negative
mutagenic call [1]: inactive; negative
mutagenic call [2]: inactive; negative
mutagenic call [3]: inactive; negative
mutagenic call [4]: inactive; negative
mutagenic call [5]: inactive; negative
mutagenic call (Test System: AMES SALMONELLA TYPHIMURIUM, Strain/Indicator: TA102, Metabolic Activation: RAT, LIVER, S-9, AROCLOR 1254, Method: PREINCUBATION): inactive; negative
mutagenic call [6]: inactive; negative
mutagenic call (Test System: AMES SALMONELLA TYPHIMURIUM, Strain/Indicator: TA1535, Metabolic Activation: RAT, LIVER, S-9, AROCLOR 1254, Method: STANDARD PLATE): inactive; negative
mutagenic call [7]: inactive; negative
mutagenic call (Test System: AMES SALMONELLA TYPHIMURIUM, Strain/Indicator: TA1537, Metabolic Activation: RAT, LIVER, S-9, AROCLOR 1254, Method: STANDARD PLATE): inactive; negative
mutagenic call [8]: inactive; negative
mutagenic call (Test System: AMES SALMONELLA TYPHIMURIUM, Strain/Indicator: TA1538, Metabolic Activation: RAT, LIVER, S-9, AROCLOR 1254, Method: STANDARD PLATE): inactive; negative
mutagenic call (Test System: AMES SALMONELLA TYPHIMURIUM, Strain/Indicator: TA1950, Metabolic Activation: NONE, Method: PREINCUBATION (30-90 MIN)): active; positive
mutagenic call (Test System: AMES SALMONELLA TYPHIMURIUM, Strain/Indicator: TA1950, Metabolic Activation: NONE, Method: STANDARD PLATE): active; positive
mutagenic call (Test System: AMES SALMONELLA TYPHIMURIUM, Strain/Indicator: TA2410, Metabolic Activation: NONE, Method: PREINCUBATION (30-90 MIN)): active; positive
mutagenic call (Test System: AMES SALMONELLA TYPHIMURIUM, Strain/Indicator: TA2410, Metabolic Activation: NONE, Method: STANDARD PLATE): inactive; negative
mutagenic call (Test System: AMES SALMONELLA TYPHIMURIUM, Strain/Indicator: TS24, Metabolic Activation: NONE, Method: PREINCUBATION (30-90 MIN)): active; positive
mutagenic call (Test System: AMES SALMONELLA TYPHIMURIUM, Strain/Indicator: TS24, Metabolic Activation: NONE, Method: STANDARD PLATE): active; positive
mutagenic call (Test System: E. COLI, Strain/Indicator: WP2, Metabolic Activation: NONE, Method: STANDARD PLATE): inactive; negative
mutagenic call (Test System: E. COLI, Strain/Indicator: WP2, Metabolic Activation: RAT, LIVER, S-9, AROCLOR 1254, Method: STANDARD PLATE): inactive; negative

O=[N+]([O-])c1cc2c3ccccc3ccc2c2ccccc12
mutagenic call (Test System: AMES SALMONELLA TYPHIMURIUM, Strain/Indicator: TA98, Metabolic Activation: HAMSTER LIVER S-9, 6-NITROCHRYSENE, Method: PREINCUBATION): active; positive
mutagenic call (Test System: AMES SALMONELLA TYPHIMURIUM, Strain/Indicator: TA98, Metabolic Activation: HAMSTER LIVER S-9, Method: PREINCUBATION): active; positive
mutagenic call [1]: active; positive
mutagenic call (Test System: AMES SALMONELLA TYPHIMURIUM, Strain/Indicator: TA98, Metabolic Activation: RAT, LIVER, S-9, AROCLOR 1254, Method: PREINCUBATION): active; positive
mutagenic call [2]: active; positive
mutagenic call (Test System: AMES SALMONELLA TYPHIMURIUM, Strain/Indicator: TA98, Metabolic Activation: RAT, LIVER, S-9, Method: PREINCUBATION): active; positive
mutagenic call (Test System: AMES SALMONELLA TYPHIMURIUM, Strain/Indicator: TA100, Metabolic Activation: HAMSTER LIVER S-9, 6-NITROCHRYSENE, Method: PREINCUBATION): active; positive
mutagenic call (Test System: AMES SALMONELLA TYPHIMURIUM, Strain/Indicator: TA100, Metabolic Activation: HAMSTER LIVER S-9, Method: PREINCUBATION): active; positive
mutagenic call (Test System: AMES SALMONELLA TYPHIMURIUM, Strain/Indicator: TA100, Metabolic Activation: NONE, Method: PREINCUBATION): active; positive
mutagenic call [3]: active; positive
mutagenic call (Test System: AMES SALMONELLA TYPHIMURIUM, Strain/Indicator: TA100, Metabolic Activation: RAT, LIVER, S-9, AROCLOR 1254, Method: PREINCUBATION): active; positive
mutagenic call [4]: active; positive
mutagenic call (Test System: AMES SALMONELLA TYPHIMURIUM, Strain/Indicator: TA100, Metabolic Activation: RAT, LIVER, S-9, Method: PREINCUBATION): active; positive
mutagenic call (Test System: AMES SALMONELLA TYPHIMURIUM, Strain/Indicator: TA102, Metabolic Activation: HAMSTER LIVER S-9, 6-NITROCHRYSENE, Method: PREINCUBATION): active; positive
mutagenic call (Test System: AMES SALMONELLA TYPHIMURIUM, Strain/Indicator: TA102, Metabolic Activation: HAMSTER LIVER S-9, Method: PREINCUBATION): active; positive
mutagenic call [5]: inactive; negative
mutagenic call (Test System: CHINESE HAMSTER OVARY, Strain/Indicator: CHO-K1-BH4 (HGPRT)/6-THIOGUANINE, Metabolic Activation: NONE, Method: STANDARD PLATE): inactive; negative
mutagenic call (Test System: CHINESE HAMSTER OVARY, Strain/Indicator: CHO-K1-BH4 (HGPRT)/6-THIOGUANINE, Metabolic Activation: RAT, LIVER, S-9, AROCLOR 1254, Method: STANDARD PLATE): active; positive
mutagenic call (Test System: CHINESE HAMSTER OVARY, Strain/Indicator: CHO-UV5 (HGPRT)/6-THIOGUANINE, Metabolic Activation: NONE, Method: STANDARD PLATE): active; positive
mutagenic call (Test System: CHINESE HAMSTER OVARY, Strain/Indicator: CHO-UV5 (HGPRT)/6-THIOGUANINE, Metabolic Activation: RAT, LIVER, S-9, AROCLOR 1254, Method: STANDARD PLATE): active; positive

C=CC
mutagenic call (Test System: MOUSE LYMPHOMA, Strain/Indicator: L5178Y (TK+/TK-), Metabolic Activation: NONE, Method: SUSPENSION/PLATE): inactive; negative
mutagenic call (Test System: MOUSE LYMPHOMA, Strain/Indicator: L5178Y (TK+/TK-), Metabolic Activation: RAT, LIVER, S-9, Method: SUSPENSION/PLATE): inactive; negative

CCCCCCCC(O)C=CC=O (stereo not drawn)
mutagenic call (End Point: IN VITRO CHROMOSOMAL ABERRATIONS, Test System: RAT HEPATOCYTES, Metabolic Activation: NONE): active; positive
mutagenic call (End Point: IN VITRO MICRONUCLEUS, Test System: RAT HEPATOCYTES, Metabolic Activation: NONE): inactive; negative

Cc1ncc2c(n1)CCC2
mutagenic call [1]: inactive; negative
mutagenic call (Test System: AMES SALMONELLA TYPHIMURIUM, Strain/Indicator: TA98, Metabolic Activation: RAT, LIVER, S-9, Method: STANDARD PLATE): inactive; negative
mutagenic call [3]: inactive; negative
mutagenic call (Test System: AMES SALMONELLA TYPHIMURIUM, Strain/Indicator: TA100, Metabolic Activation: RAT, LIVER, S-9, Method: STANDARD PLATE): inactive; negative
mutagenic call [6]: inactive; negative
mutagenic call (Test System: AMES SALMONELLA TYPHIMURIUM, Strain/Indicator: TA1535, Metabolic Activation: RAT, LIVER, S-9, Method: STANDARD PLATE): inactive; negative
mutagenic call [7]: inactive; negative
mutagenic call (Test System: AMES SALMONELLA TYPHIMURIUM, Strain/Indicator: TA1537, Metabolic Activation: RAT, LIVER, S-9, Method: STANDARD PLATE): inactive; negative
mutagenic call [8]: inactive; negative
mutagenic call (Test System: AMES SALMONELLA TYPHIMURIUM, Strain/Indicator: TA1538, Metabolic Activation: RAT, LIVER, S-9, Method: STANDARD PLATE): inactive; negative
